Source: US20250115591A1, “NOVEL SULFONAMIDE CARBOXAMIDE COMPOUNDS” (INFLAZOME LIMITED, priority 2017, published 2025)
Structures can show the parent of a compound that is named as a salt. Where two headings read alike, the source gives them in different places.

Key:
NLRP3 [1] = biological target: T1, NLRP3 (Homo sapiens (Human), UniProt Q96P20); experiment: THP-1 cells pyroptosis assay (LPS + nigericin, resazurin read-out); type: cell-based; details: 1 μg/ml LPS, 5 μM nigericin
Procedure, shortened: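 LPS-primed (1 μg/ml) human THP-1 cells in serum-free RPMI were exposed to compound (8-point half-log series, top dose as printed "10M") for 3 h at 37 °C, then to nigericin 5 μM for 1 h. Remaining viability was read by resazurin (100 μM, 1-2 h) fluorescence, and IC50 came from 4-parameter variable-slope regression.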

NLRP3 [2] = biological target: T1, NLRP3; experiment: Human whole blood IL1β release assay (LPS + nigericin); type: cell-based; details: human whole blood, 1 μg/ml LPS, nigericin, IL-1β release; read-out: HWB IC50
Description: For systemic delivery, the ability to inhibit NLRP3 when the compounds are present within the bloodstream is of great importance. For this reason, the NLRP3 inhibitory activity of a number of compounds in human whole blood was investigated in accordance with the following protocol.
Human whole blood in Li-heparin tubes was obtained from healthy donors from a volunteer donor panel. • 1. Plate out 80 μl of whole blood containing 1 μg/ml of LPS in 96-well, clear bottom cell culture plate (Corning #3585) • 2. Add 10 μl compound (8 points half-log dilution with 10 μM top dose) or vehicle (DMSO 0.1% FAC) to the appropriate wells • 3. Incubate for 3 hrs at 37° C., 5% CO2 • 4. Add 10 μl nigericin (Sigma #N7143) ([…]) to all wells • 5. Incubate for 1 hr at 37° C., 5% CO2 • 6. At the end of the incubation period, spin plates at 30×g for 5 mins to pellet cells and remove 20 μl of supernatant and add to 96-well v-bottom plates for IL-1β analysis (note: these plates containing the supernatants can be stored at −80° C. to be analysed at a later date) • 7. IL-1β was measured according to the manufacturer protocol (Perkin Elmer-AlphaLisa IL-Kit A[220F-5000) • 8. IC50 data is fitted to a non-linear regression equation (log inhibitor vs response-variable slope 4-parameters)

[3] = PK, intravenous administration; type: in vivo, male Sprague Dawley rats; details: male, Sprague Dawley, plasma, rat, intravenous; for AUC: read-out: AUC; for clearance: read-out: Cl; for half-life: read-out: T1/2 (converted); for Vd: read-out: Vdss
Description: (§1) Pharmacokinetic parameters were determined in male Sprague Dawley rats (Charles River, UK, 250-300 g; or Vital River Laboratory Animal Technology Co Ltd, Beijing, China, 7-9 weeks old). Animals were individually housed during the study and maintained under a 12 h light/dark cycle. Animals had free access to food and water except that orally dosed animals were food deprived overnight prior to the study. For intravenous administration, compounds were formulated as a solution in water or DMSO:PBS [10:90] in 2 mL/kg dosing volume and administered via tail vein. For oral administration, compounds were formulated as a solution in water or DMSO:water [10:90] in 5 mL/kg dosing volume and administered orally. Serial blood samples (about 120-300 μL) were taken from each animal at each of 8 time-points post dose (0.083, 0.25, 0.5, 1, 2, 4, 8 and 24 h). Samples were held on ice for no longer than 30 minutes before centrifugation (10,000 rpm (8,385 g) for 3 minutes; or 5,696 rpm (3,000 g) for 15 minutes) for plasma generation. Plasma was frozen on dry ice prior to bioanalysis. PK parameters were generated from LC-MS/MS data using Dotmatics or Phoenix WinNonlin 6.3 software.

PK, oral administration = type: in vivo, male Sprague Dawley rats; details: male, Sprague Dawley, plasma, rat, dose 3 mg/kg
Description: as §1

T1 sequence (Q96P20 whole entry): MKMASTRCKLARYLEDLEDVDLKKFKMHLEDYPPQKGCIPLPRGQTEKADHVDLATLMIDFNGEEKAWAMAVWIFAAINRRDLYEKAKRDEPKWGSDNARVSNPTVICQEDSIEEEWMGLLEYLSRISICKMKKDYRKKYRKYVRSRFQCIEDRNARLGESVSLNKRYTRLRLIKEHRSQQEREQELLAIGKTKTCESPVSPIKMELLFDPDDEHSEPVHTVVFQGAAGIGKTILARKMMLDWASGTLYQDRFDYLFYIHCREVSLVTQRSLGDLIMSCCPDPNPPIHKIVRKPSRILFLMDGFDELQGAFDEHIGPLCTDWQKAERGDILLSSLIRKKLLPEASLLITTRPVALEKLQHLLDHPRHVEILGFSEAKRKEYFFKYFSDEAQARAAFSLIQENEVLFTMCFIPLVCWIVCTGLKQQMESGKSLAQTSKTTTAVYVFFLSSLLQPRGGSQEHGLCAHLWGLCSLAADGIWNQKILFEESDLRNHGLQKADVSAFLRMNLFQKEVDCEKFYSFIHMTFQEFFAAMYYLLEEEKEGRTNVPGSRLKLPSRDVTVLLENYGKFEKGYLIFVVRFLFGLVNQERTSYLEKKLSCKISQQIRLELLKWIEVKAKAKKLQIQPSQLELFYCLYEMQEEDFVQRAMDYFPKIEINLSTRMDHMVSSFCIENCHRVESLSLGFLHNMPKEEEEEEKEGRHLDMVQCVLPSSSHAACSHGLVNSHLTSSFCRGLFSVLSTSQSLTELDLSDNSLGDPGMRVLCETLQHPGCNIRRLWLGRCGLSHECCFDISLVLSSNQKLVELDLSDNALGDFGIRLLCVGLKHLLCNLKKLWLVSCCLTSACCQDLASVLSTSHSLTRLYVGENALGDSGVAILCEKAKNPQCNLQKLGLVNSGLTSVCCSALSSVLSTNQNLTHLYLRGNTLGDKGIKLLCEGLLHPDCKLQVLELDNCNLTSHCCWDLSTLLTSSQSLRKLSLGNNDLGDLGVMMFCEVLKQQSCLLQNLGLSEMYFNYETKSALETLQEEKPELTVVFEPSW

SMILES | IC50 (NLRP3 [1]) [nM] | IC50 (NLRP3 [2]) [nM] | AUC ([3]; dose 1 mg/kg) [ng·h/mL] | clearance ([3]; dose 1 mg/kg) [mL/min/kg] | half-life ([3]; dose 1 mg/kg) [h] | Vd ([3]; dose 1 mg/kg) [L/kg] | AUC (PK, oral administration) [ng·h/mL] | Cmax (PK, oral administration) [ng/mL] | Tmax (PK, oral administration) [h] | half-life (PK, oral administration) [h] | AUC ([3]; dose 2.09 mg/kg) [ng·h/mL] | clearance ([3]; dose 2.09 mg/kg) [mL/min/kg] | half-life ([3]; dose 2.09 mg/kg) [h] | Vd ([3]; dose 2.09 mg/kg) [L/kg]
CN1CCC(S(=O)(=O)NC(=O)Nc2c3c(cc4c2CCC4)CCC3)CC1 [Example 1, N-((1,2,3,5,6,7-Hexahydro-s-indacen-4-yl)carbamoyl)-1-methylpiperidine-4-sulfonamide, potassium salt] | 1000 to 10000 | 1000 to 10000 | 1950 | 8.5 | 1.2 | 0.58 | – | – | – | – | – | – | – | –
CC(C)N1CC(S(=O)(=O)NC(=O)Nc2c3c(cc4c2CCC4)CCC3)C1 [Example 46, N-((1,2,3,5,6,7-Hexahydro-s-indacen-4-yl)carbamoyl)-1-iso-propylazetidine-3-sulfonamide, potassium salt] | < 1000 | < 1000 | 2080 | 8.2 | 1.2 | 0.45 | 3510 | 1330 | 0.67 | 1.4 | – | – | – | –
CCN1CCC(S(=O)(=O)NC(=O)Nc2c3c(cc4c2CCC4)CCC3)CC1 [Example 6, 1-Ethyl-N-((1,2,3,5,6,7-hexahydro-s-indacen-4-yl)carbamoyl)piperidine-4-sulfonamide, potassium salt] | < 1000 | < 1000 | 2340 | 7.2 | 2.7 | 0.61 | 5400 | 1770 | 0.5 | 2.7 | – | – | – | –
CC(C)N1CCC(S(=O)(=O)NC(=O)Nc2c3c(cc4c2CCC4)CCC3)C1 (stereo not shown) [Example 41, N-((1,2,3,5,6,7-Hexahydro-s-indacen-4-yl)carbamoyl)-1-iso-propylpyrrolidine-3-sulfonamide, potassium salt] | < 1000 | < 1000 | 1850 | 9.1 | 2.9 | 0.78 | – | – | – | – | – | – | – | –
COc1cc(-c2ccc3c(c2NC(=O)NS(=O)(=O)c2ccc(=O)n(C(C)C)c2)CCC3)ccn1 [Example 153, 1-Isopropyl-N-((5-(2-methoxypyridin-4-yl)-2,3-dihydro-1H-inden-4-yl)carbamoyl)-6-oxo-1,6-dihydropyridine-3-sulfonamide] | < 1000 | < 1000 | 511 | 32.6 | 1.1 | 1.21 | – | – | – | – | – | – | – | –
CCCN1CC(S(=O)(=O)NC(=O)Nc2c3c(cc4c2CCC4)CCC3)C1 [Example 76, N-((1,2,3,5,6,7-Hexahydro-s-indacen-4-yl)carbamoyl)-1-propylazetidine-3-sulfonamide, potassium salt] | < 1000 | < 1000 | 2650 | 6.3 | 1 | 0.25 | – | – | – | – | – | – | – | –
CCN1CCCC(S(=O)(=O)NC(=O)Nc2c3c(cc4c2CCC4)CCC3)C1 (stereo not shown) [Example 9, 1-Ethyl-N-((1,2,3,5,6,7-hexahydro-s-indacen-4-yl)carbamoyl)-piperidine-3-sulfonamide, potassium salt] | < 1000 | < 1000 | 2670 | 6.5 | 3.9 | 0.63 | – | – | – | – | – | – | – | –
O=C(Nc1c2c(cc3c1CCC3)CCC2)NS(=O)(=O)C1CN(CC2CC2)C1 [Example 94, 1-(Cyclopropylmethyl)-N-((1,2,3,5,6,7-hexahydro-s-indacen-4-yl)carbamoyl)azetidine-3-sulfonamide, potassium salt] | < 1000 | < 1000 | – | – | – | – | – | – | – | – | 1410 | 25.2 | 1.1 | 1.62
O=C(Nc1c2c(cc3c1CCC3)CCC2)NS(=O)(=O)C1CN(C2CSC2)C1 [Example 109, N-((1,2,3,5,6,7-Hexahydro-s-indacen-4-yl)carbamoyl)-1-(thietan-3-yl)azetidine-3-sulfonamide, potassium salt] | < 1000 | < 1000 | 1730 | 9.6 | 1.3 | 0.64 | – | – | – | – | – | – | – | –
O=C(Nc1c2c(cc3c1CCC3)CCC2)NS(=O)(=O)C1CN(Cc2cccnc2Br)C1 [Example 105, 1-((2-Bromopyridin-3-yl)methyl)-N-((1,2,3,5,6,7-hexahydro-s-indacen-4-yl)carbamoyl)azetidine-3-sulfonamide, potassium salt] | < 1000 | > 10000 | – | – | – | – | – | – | – | – | – | – | – | –
COc1cc(-c2ccc3c(c2NC(=O)NS(=O)(=O)C2CN(C(C)C)C2)CCC3)ccn1 [Example 159, 1-Isopropyl-N-((5-(2-methoxypyridin-4-yl)-2,3-dihydro-1H-inden-4-yl)carbamoyl)azetidine-3-sulfonamide] | < 1000 | < 1000 | – | – | – | – | – | – | – | – | – | – | – | –
O=C(Nc1c2c(cc3c1CCC3)CCC2)NS(=O)(=O)C1CCN(C(=O)C2CC2)CC1 [Example 7, 1-(Cyclopropanecarbonyl)-N-((1,2,3,5,6,7-hexahydro-s-indacen-4-yl)carbamoyl)piperidine-4-sulfonamide, potassium salt] | < 1000 | 1000 to 10000 | – | – | – | – | – | – | – | – | – | – | – | –
CC(C)N1CCCC(S(=O)(=O)NC(=O)Nc2c3c(cc4c2CCC4)CCC3)C1 (stereo not shown) [Example 31, N-((1,2,3,5,6,7-Hexahydro-s-indacen-4-yl)carbamoyl)-1-iso-propyl-piperidine-3-sulfonamide, potassium salt] | < 1000 | < 1000 | 2750 | 6.1 | 4.5 | 0.47 | – | – | – | – | – | – | – | –
CC(C(F)F)N1CC(S(=O)(=O)NC(=O)Nc2c3c(cc4c2CCC4)CCC3)C1 (stereo not shown) [Example 131, 1-(1,1-Difluoropropan-2-yl)-N-((1,2,3,5,6,7-hexahydro-s-indacen-4-yl)carbamoyl)azetidine-3-sulfonamide, potassium salt] | < 1000 | 1000 to 10000 | – | – | – | – | – | – | – | – | – | – | – | –
